Experimental data taken from PubChem BioAssay AID1919006 (Molecular Pharmacology Branch, DTP, NCI, 2023).
pIC50: −log10 of the molar value.

Tested on: 885512-296-R-J2-PDC complex spheroid growth, % test/control
Assay: Anticancer human tumor 885512-296-R-J2-PDC patient-derived breast carcinoma cell line growth inhibition [AhR]
Details: for pIC50: curve of first compound; for viability, T/C: stronger effect = lower value
Summary of the method: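 Complex tumor spheroids co-cultured with HUVEC and human MSC stroma; AhR antagonists tested in combination with standard-of-care and investigational agents. Top concentration at or near clinical Cmax (else 10 microM), half-log dilutions; growth expressed as percent test/control.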

[1] = second compound 0.1 µM, first compound 0.000949 µM
[2] = second compound 0.1 µM, first compound 0.003 µM
[3] = second compound 0.1 µM, first compound 0.00949 µM
[4] = second compound 0.1 µM, first compound 0.03 µM
[5] = second compound 0.1 µM, first compound 0.0949 µM
[6] = second compound 0.1 µM, first compound 0.3 µM
[7] = second compound 0.316 µM, first compound 0.000949 µM
[8] = second compound 0.316 µM, first compound 0.003 µM
[9] = second compound 0.316 µM, first compound 0.00949 µM
[10] = second compound 0.316 µM, first compound 0.03 µM
[11] = second compound 0.316 µM, first compound 0.0949 µM
[12] = second compound 0.316 µM, first compound 0.3 µM
[13] = second compound 1 µM, first compound 0.000949 µM
[14] = second compound 1 µM, first compound 0.003 µM
[15] = second compound 1 µM, first compound 0.00949 µM
[16] = second compound 1 µM, first compound 0.03 µM
[17] = second compound 1 µM, first compound 0.0949 µM
[18] = second compound 1 µM, first compound 0.3 µM
[19] = second compound 3.16 µM, first compound 0.000949 µM
[20] = second compound 3.16 µM, first compound 0.003 µM
[21] = second compound 3.16 µM, first compound 0.00949 µM
[22] = second compound 3.16 µM, first compound 0.03 µM
[23] = second compound 3.16 µM, first compound 0.0949 µM
[24] = second compound 3.16 µM, first compound 0.3 µM
[25] = second compound 10 µM, first compound 0.000949 µM
[26] = second compound 10 µM, first compound 0.003 µM
[27] = second compound 10 µM, first compound 0.00949 µM
[28] = second compound 10 µM, first compound 0.03 µM
[29] = second compound 10 µM, first compound 0.0949 µM
[30] = second compound 10 µM, first compound 0.3 µM
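Further: spheroids exposed to compounds for seven days.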

CC(C)CC(NC(=O)C(Cc1ccccc1)NC(=O)c1cnccn1)B(O)O (stereo not given) + Cc1ccccc1N=Nc1ccc(NC(=O)c2ccnn2C)c(C)c1
pIC50 (second compound 0.1 µM): 8.18
pIC50 (second compound 0.316 µM): 8.15
pIC50 (second compound 1 µM): 8.20
pIC50 (second compound 3.16 µM): 8.21
pIC50 (second compound 10 µM): 8.49
viability, T/C [1]: 96.7%
viability, T/C [2]: 105%
viability, T/C [3]: 26.3%
viability, T/C [4]: 1.3%
viability, T/C [5]: 0.26%
viability, T/C [6]: 0.15%
viability, T/C [7]: 115%
viability, T/C [8]: 122%
viability, T/C [9]: 26.6%
viability, T/C [10]: 1.13%
viability, T/C [11]: 0.18%
viability, T/C [12]: 0.13%
viability, T/C [13]: 111%
viability, T/C [14]: 101%
viability, T/C [15]: 21.8%
viability, T/C [16]: 1.27%
viability, T/C [17]: 0.5%
viability, T/C [18]: 0.13%
viability, T/C [19]: 82%
viability, T/C [20]: 94.2%
viability, T/C [21]: 26.8%
viability, T/C [22]: 1.47%
viability, T/C [23]: 0.16%
viability, T/C [24]: 0.14%
viability, T/C [25]: 58%
viability, T/C [26]: 50.3%
viability, T/C [27]: 25.8%
viability, T/C [28]: 1.46%
viability, T/C [29]: 0.3%
viability, T/C [30]: 0.18%

CCc1c2c(nc3ccc(O)cc13)-c1cc3c(c(=O)n1C2)COC(=O)[C@]3(O)CC + Cc1ccccc1N=Nc1ccc(NC(=O)c2ccnn2C)c(C)c1
pIC50 (second compound 0.1 µM): > 9.02
pIC50 (second compound 0.316 µM): > 9.02
pIC50 (second compound 1 µM): > 9.02
pIC50 (second compound 3.16 µM): > 9.02
pIC50 (second compound 10 µM): > 9.02
viability, T/C [1]: 15.3%
viability, T/C [2]: 7.41%
viability, T/C [3]: 6.43%
viability, T/C [4]: 4.14%
viability, T/C [5]: 1.83%
viability, T/C [6]: 1.03%
viability, T/C [7]: 17.7%
viability, T/C [8]: 7.53%
viability, T/C [9]: 5.71%
viability, T/C [10]: 3.77%
viability, T/C [11]: 1.78%
viability, T/C [12]: 1.57%
viability, T/C [13]: 16.8%
viability, T/C [14]: 6.58%
viability, T/C [15]: 5.11%
viability, T/C [16]: 4.84%
viability, T/C [17]: 2.6%
viability, T/C [18]: 1.23%
viability, T/C [19]: 17.2%
viability, T/C [20]: 6.69%
viability, T/C [21]: 5.43%
viability, T/C [22]: 4.44%
viability, T/C [23]: 2.64%
viability, T/C [24]: 1.47%
viability, T/C [25]: 14.9%
viability, T/C [26]: 7.42%
viability, T/C [27]: 5.87%
viability, T/C [28]: 3.54%
viability, T/C [29]: 2.17%
viability, T/C [30]: 1.29%

Nc1ccccc1NC(=O)c1ccc(CNC(=O)OCc2cccnc2)cc1 + Cc1ccccc1N=Nc1ccc(NC(=O)c2ccnn2C)c(C)c1
pIC50 (second compound 0.1 µM): 6.12
pIC50 (second compound 0.316 µM): 6.12
pIC50 (second compound 1 µM): 6.02
pIC50 (second compound 3.16 µM): 6.15
pIC50 (second compound 10 µM): > 7.50
viability, T/C (second compound 0.1 µM, first compound 0.0316 µM): 95.5%
viability, T/C (second compound 0.1 µM, first compound 0.1 µM): 89.5%
viability, T/C (second compound 0.1 µM, first compound 0.316 µM): 64.3%
viability, T/C (second compound 0.1 µM, first compound 1 µM): 43.7%
viability, T/C (second compound 0.1 µM, first compound 3.16 µM): 28.3%
viability, T/C (second compound 0.1 µM, first compound 10 µM): 11.1%
viability, T/C (second compound 0.316 µM, first compound 0.0316 µM): 92%
viability, T/C (second compound 0.316 µM, first compound 0.1 µM): 77.7%
viability, T/C (second compound 0.316 µM, first compound 0.316 µM): 68.8%
viability, T/C (second compound 0.316 µM, first compound 1 µM): 43.1%
viability, T/C (second compound 0.316 µM, first compound 3.16 µM): 26.5%
viability, T/C (second compound 0.316 µM, first compound 10 µM): 10.7%
viability, T/C (second compound 1 µM, first compound 0.0316 µM): 97.7%
viability, T/C (second compound 1 µM, first compound 0.1 µM): 91.5%
viability, T/C (second compound 1 µM, first compound 0.316 µM): 69.5%
viability, T/C (second compound 1 µM, first compound 1 µM): 48.7%
viability, T/C (second compound 1 µM, first compound 3.16 µM): 29.2%
viability, T/C (second compound 1 µM, first compound 10 µM): 11.2%
viability, T/C (second compound 3.16 µM, first compound 0.0316 µM): 75.2%
viability, T/C (second compound 3.16 µM, first compound 0.1 µM): 69.7%
viability, T/C (second compound 3.16 µM, first compound 0.316 µM): 62.3%
viability, T/C (second compound 3.16 µM, first compound 1 µM): 44.3%
viability, T/C (second compound 3.16 µM, first compound 3.16 µM): 27.7%
viability, T/C (second compound 3.16 µM, first compound 10 µM): 12.4%
viability, T/C (second compound 10 µM, first compound 0.0316 µM): 49.4%
viability, T/C (second compound 10 µM, first compound 0.1 µM): 45.1%
viability, T/C (second compound 10 µM, first compound 0.316 µM): 44.5%
viability, T/C (second compound 10 µM, first compound 1 µM): 32.5%
viability, T/C (second compound 10 µM, first compound 3.16 µM): 23.5%
viability, T/C (second compound 10 µM, first compound 10 µM): 12.8%
